Source: patent US20100298141A1, “SUBSTITUTED PYRIDINE N-OXIDE HERBICIDES” (E. I. DU PONT DE NEMOURS AND COMPANY, priority 2007, published 2010)

Experiments:
[1] = tested on: broadleaf signalgrass; test: Test F preemergence test; type: in vivo, Brachiaria platyphylla; details: scale 0 to 100
Text: (§1) Seeds of plant species selected from bermudagrass (Cynodon dactylon), Surinam grass (Brachiaria decumbens), large crabgrass (Digitaria sanguinalis), green foxtail (Setaria viridis), goosegrass (Eleusine indica), johnsongrass (Sorghum halepense), kochia (Kochia scoparia), pitted morningglory (Ipomoea lacunosa), purple nutsedge (Cyperus rotundus), common ragweed (Ambrosia elation), mustard (Brassica nigra), guineagrass (Panicum maximum), […] (Paspalum dilatatum), barnyardgrass (Echinochloa crus-galli), southern sandbur (Cenchrus echinatus), common sowthistle (Sonchus oleraceous), prickly […] spinosa), Italian ryegrass (Lolium multiflorum), common purslane (Portulaca oleracea), broadleaf signalgrass (Brachiaria platyphylla), common groundsel (Senecio vulgaris), common chickweed (Stellaria media), Virginia dayflower (Commelina virginica), annual bluegrass (Poa annua), naked crabgrass (Digitaria nuda), […] cochinchinensis), quackgrass (Elytrigia repens), Canada horseweed (Conyza canadensis), field bindweed (Convolvulus arvensis), […] (Bidens bipinnata), common mallow (Malva sylvestris), Russian thistle (Salsola kali), and sugarcane (Saccharum officinarum) were planted and treated preemergence with test chemicals formulated in a non-phytotoxic solvent mixture which included a surfactant. At a different time, sugarcane was treated with postemergence applications of some of the test chemicals formulated in the same manner. Plants were approximately 3- to 4-leaf stage for the postemergence treatments. Treated plants and controls were maintained in a greenhouse for 14 to 21 days, after which time all species were compared to controls and visually evaluated. […] A dash (-) response means no test result.

[2] = tested on: large crabgrass; test: Test F preemergence test; type: in vivo, Digitaria sanguinalis; details: scale 0 to 100
Text: as §1

[3] = tested on: barnyardgrass; test: Test F preemergence test; type: in vivo, Echinochloa crus-galli; details: scale 0 to 100
Text: as §1

[4] = tested on: mustard; test: Test F preemergence test; type: in vivo, Brassica nigra; details: scale 0 to 100
Text: as §1

[5] = tested on: woolly cupgrass; test: Test C pre-/postemergence test; type: in vivo, Eriochloa villosa; details: for Plant response rating, Cupgrass, Woolly: scale 0 to 100, 0 no effect, 100 complete control
Text: (§2) Seeds of plant species selected from blackgrass (Alopecurus myosuroides), downy brome (Bromus tectorum), green foxtail (Setaria viridis), Italian ryegrass (Lolium multiflorum), wheat (Triticum aestivum), wild oat (Avena fatua), catchweed bedstraw (Galium aparine), Russian thistle (Salsola kali), […] (Cynodon dactylon), Surinam grass (Brachiaria decumbens), cocklebur (Xanthium strumarium), corn (Zea mays), crabgrass (Digitaria sanguinalis), woolly cupgrass (Eriochloa villosa), giant foxtail (Setaria faberii), Goosegrass (Eleusin indica), johnsongrass (Sorghum halepense), kochia (Kochia scoparia), lambsquarters (Chenopodium album), morningglory (Ipomoea coccinea), eastern black nightshade (Solanum ptycanthum), yellow nutsedge (Cyperus esculentus), pigweed (Amaranthus retroflexus), common ragweed (Ambrosia elation), soybean (Glycine max), common (oilseed) sunflower (Helianthus annuus), and velvetleaf (Abutilon theophrasti) were planted and treated preemergence with test chemicals formulated in a non-phytotoxic solvent mixture which included a surfactant. At the same time, plants selected from these crop and weed species and also winter barley (Hordeum vulgare), canarygrass (Phalaris minor), and chickweed (Stellaria media) were treated with postemergence applications of some of the test chemicals formulated in the same manner. Plants ranged in height from 2 to 18 cm (1- to 4-leaf stage) for postemergence treatments. […] At time of treatment, test pots were flooded to 3 cm above the soil surface, treated by application of test compounds directly to the paddy water, and then maintained at that water depth for the duration of the test. […] A dash (-) response means no test result.

[6] = tested on: purple nutsedge; test: Test F preemergence test; type: in vivo, Cyperus rotundus; details: scale 0 to 100
Text: as §1

[7] = tested on: Surinam grass; test: Test F preemergence test; type: in vivo, Brachiaria decumbens; details: scale 0 to 100
Text: as §1

[8] = tested on: quackgrass; test: Test F preemergence test; type: in vivo, Elytrigia repens; details: scale 0 to 100
Text: as §1

[9] = tested on: bermudagrass; test: Test F preemergence test; type: in vivo, Cynodon dactylon; details: scale 0 to 100
Text: as §1

[10] = tested on: goosegrass; test: Test F preemergence test; type: in vivo, Eleusine indica; details: scale 0 to 100
Text: as §1

[11] = tested on: kochia; test: Test F preemergence test; type: in vivo, Kochia scoparia; details: scale 0 to 100
Text: as §1

[12] = tested on: corn; test: Test C pre-/postemergence test; type: in vivo, Zea mays; details: for Plant response rating, Corn: scale 0 to 100, 0 no effect, 100 complete control
Text: as §2

[13] = tested on: blackgrass; test: Test C pre-/postemergence test; type: in vivo, Alopecurus myosuroides; details: for Plant response rating, Blackgrass: scale 0 to 100, 0 no effect, 100 complete control
Text: as §2

[14] = tested on: Italian ryegrass; test: Test F preemergence test; type: in vivo, Lolium multiflorum; details: scale 0 to 100
Text: as §1

[15] = tested on: southern sandbur; test: Test F preemergence test; type: in vivo, Cenchrus echinatus; details: scale 0 to 100
Text: as §1

[16] = 31 g ai/ha, Preemergence, scale 0 to 100
[17] = 62 g ai/ha, preemergence, scale 0 (no effect) to 100 (complete control)
[18] = preemergence, 125 g ai/ha, scale 0 (no effect) to 100 (complete control)

With Cc1cc[n+]([O-])c(S(=O)(=O)Cc2c(C(F)(F)F)nn(C)c2OC(F)F)c1 [Compound 2] the “Plant response rating, Signalgrass” value ([1]; 8 g ai/ha, preemergence) was 0, the “Plant response rating, Signalgrass” value ([1]; 16 g ai/ha, preemergence) was 0 and the “Signalgrass plant response rating” value ([1]; 62 g ai/ha, Preemergence) was 50. For the same compound, the “Plant response rating, Signalgrass” value ([1]; Preemergence, 31 g ai/ha) was 0, the “Plant response rating, Crabgrass, Large” value ([2]; 8 g ai/ha, preemergence) was 0 and the “Crabgrass, Large plant response rating” value ([2]; 62 g ai/ha, Preemergence) was 90. The “Plant response rating, Crabgrass, Large” value ([2]; Preemergence, 16 g ai/ha) was 0, the “Plant response rating, Crabgrass, Large” value ([2]; Preemergence, 31 g ai/ha) was 50 and the “Plant response rating, Barnyardgrass” value ([3]; 8 g ai/ha, preemergence) was 0. The “Barnyardgrass plant response rating” value ([3]; 62 g ai/ha, Preemergence) was 100, the “Plant response rating, Barnyardgrass” value ([3]; Preemergence, 16 g ai/ha) was 10 and the “Plant response rating, Barnyardgrass” value ([3]; Preemergence, 31 g ai/ha) was 80. The “Plant response rating, Black Mustard” value ([4]; 8 g ai/ha, preemergence) was 0, the “Black Mustard plant response rating” value ([4]; 62 g ai/ha, Preemergence) was 80 and the “Plant response rating, Black Mustard” value ([4]; Preemergence, 16 g ai/ha) was 25. The “Plant response rating, Black Mustard” value ([4]; Preemergence, 31 g ai/ha) was 80, the “Cupgrass, Woolly plant response rating” value [5, 16] was 65 and the “Cupgrass, Woolly plant response rating” value [5, 17] was 90. For the same compound, the “Plant response rating (0 to 100), Cupgrass, Woolly” value ([5]; Postemergence, 31 g ai/ha) was 0, the “Plant response rating, Cupgrass, Woolly” value ([5]; Postemergence, 62 g ai/ha) was 30 and the “Plant response rating, Cupgrass, Woolly” value ([5]; Postemergence, 125 g ai/ha) was 50. For the same compound, the “Plant response rating, Cupgrass, Woolly” value ([5]; Postemergence, 250 g ai/ha) was 50, the “Plant response rating (0 to 100), Cupgrass, Woolly” value ([5]; Preemergence, 250 g ai/ha) was 100 and the “Cupgrass, Woolly plant response rating” value [5, 18] was 100. The “Plant response rating, Purple Nutsedge” value ([6]; 8 g ai/ha, preemergence) was 0, the “Purple Nutsedge plant response rating” value ([6]; 62 g ai/ha, Preemergence) was 100 and the “Plant response rating, Purple Nutsedge” value ([6]; Preemergence, 16 g ai/ha) was 15. The “Plant response rating, Purple Nutsedge” value ([6]; Preemergence, 31 g ai/ha) was 70, the “Plant response rating, Surinam Grass” value ([7]; 8 g ai/ha, preemergence) was 0 and the “Plant response rating, Surinam Grass” value ([7]; 16 g ai/ha, preemergence) was 0. The “Surinam Grass plant response rating” value ([7]; 62 g ai/ha, Preemergence) was 100, the “Plant response rating, Surinam Grass” value ([7]; Preemergence, 31 g ai/ha) was 60 and the “Plant response rating, Quackgrass” value ([8]; 8 g ai/ha, preemergence) was 0. For the same compound, the “Quackgrass plant response rating” value ([8]; 62 g ai/ha, Preemergence) was 60, the “Plant response rating, Quackgrass” value ([8]; Preemergence, 16 g ai/ha) was 0 and the “Plant response rating, Quackgrass” value ([8]; Preemergence, 31 g ai/ha) was 20. For the same compound, the “Plant response rating, Bermudagrass” value ([9]; 8 g ai/ha, preemergence) was 0, the “Bermudagrass plant response rating” value ([9]; 62 g ai/ha, Preemergence) was 90 and the “Plant response rating, Bermudagrass” value ([9]; Preemergence, 16 g ai/ha) was 25. For the same compound, the “Plant response rating, Bermudagrass” value ([9]; Preemergence, 31 g ai/ha) was 90, the “Plant response rating, Goosegrass” value ([10]; 8 g ai/ha, preemergence) was 35 and the “Goosegrass plant response rating” value ([10]; 62 g ai/ha, Preemergence) was 98. For the same compound, the “Plant response rating, Goosegrass” value ([10]; Preemergence, 16 g ai/ha) was 70, the “Plant response rating, Goosegrass” value ([10]; Preemergence, 31 g ai/ha) was 90 and the “Plant response rating, Kochia” value ([11]; 8 g ai/ha, preemergence) was 0. The “Kochia plant response rating” value ([11]; 62 g ai/ha, Preemergence) was 75, the “Plant response rating, Kochia” value ([11]; Preemergence, 16 g ai/ha) was 0 and the “Plant response rating, Kochia” value ([11]; Preemergence, 31 g ai/ha) was 0. For the same compound, the “Corn plant response rating” value [12, 16] was 0, the “Corn plant response rating” value [12, 17] was 5 and the “Plant response rating (0 to 100), Corn” value ([12]; Postemergence, 31 g ai/ha) was 0. The “Plant response rating, Corn” value ([12]; Postemergence, 62 g ai/ha) was 0, the “Plant response rating, Corn” value ([12]; Postemergence, 125 g ai/ha) was 0 and the “Plant response rating, Corn” value ([12]; Postemergence, 250 g ai/ha) was 0. For the same compound, the “Plant response rating (0 to 100), Corn” value ([12]; Preemergence, 250 g ai/ha) was 85, the “Corn plant response rating” value [12, 18] was 45 and the “Blackgrass plant response rating” value [13, 16] was 60. The “Blackgrass plant response rating” value [13, 17] was 80, the “Plant response rating (0 to 100), Blackgrass” value ([13]; Postemergence, 31 g ai/ha) was 0 and the “Plant response rating, Blackgrass” value ([13]; Postemergence, 62 g ai/ha) was 0. The “Plant response rating, Blackgrass” value ([13]; Postemergence, 125 g ai/ha) was 0, the “Plant response rating, Blackgrass” value ([13]; Postemergence, 250 g ai/ha) was 0 and the “Plant response rating (0 to 100), Blackgrass” value ([13]; Preemergence, 250 g ai/ha) was 100. For the same compound, the “Blackgrass plant response rating” value [13, 18] was 80, the “Plant response rating, Ryegrass, Italian” value ([14]; 8 g ai/ha, preemergence) was 0 and the “Ryegrass, Italian plant response rating” value ([14]; 62 g ai/ha, Preemergence) was 35. The “Plant response rating, Ryegrass, Italian” value ([14]; Preemergence, 16 g ai/ha) was 0, the “Plant response rating, Ryegrass, Italian” value ([14]; Preemergence, 31 g ai/ha) was 20 and the “Plant response rating, Sandbur” value ([15]; 8 g ai/ha, preemergence) was 0. For the same compound, the “Plant response rating, Sandbur” value ([15]; 16 g ai/ha, preemergence) was 0, the “Sandbur plant response rating” value ([15]; 62 g ai/ha, Preemergence) was 100 and the “Plant response rating, Sandbur” value ([15]; Preemergence, 31 g ai/ha) was 30.
